{"source": "patent EP2662079A1", "about": "(Ordway Research Institute, Inc., priority 2012, dated 2013)", "key": {"MDA-MB-231 cells": {"system": "MDA-MB-231 cells", "experiment": "RNA microarray of MDA-MB-231 cells", "assay_type": "cell-based, human", "protocol": "Tetrac and nanoparticulate Tetrac. Tetrac was custom-synthesized by Peptido GMBH (Bembach, Germany). The proprietary Tetrac nanoparticle was custom-synthesized by covalently-bonding of the outer ring hydroxyl of Tetrac to PLGA via an intervening linker. […] Cell culture for definition of effects of Tetrac formulations on tumor cell proliferation. MDA-MB-231 cells were purchased from ATCC (Manassas, VA). Cells were maintained until use in DMEM that contained 10% FBS. The incubator conditions were 5% CO2/95% 02 and 37° C. The action of unmodified Tetrac and nanoparticulate on MDA-MB-231 cells was determined in a perfusion bellows cell culture system we have recently described for quantitating pharmaceutical agent pharmacodynamics in vitro. (See Lin et al., J Steroid Biochem Mol Biol 113: 182-188 (2009)). In brief, the cell culture system is a disposable bioreactor capable of high density cell culture for studies of anti-cancer drugs. Bellows-induced alternate flow of culture medium and air through porous matrices where cells are grown provides a relatively low shear, high aeration, foam-free culture environment. Medium level is raised and lowered to submerge and expose matrices to create a dynamic interface between air and media on the cell surface. Anchorage-dependent cells are grown on plastic flakes in the system. The flakes facilitate harvesting of whole cells for analysis. In the present studies, 5 x 10^7 cells were seeded in each perfusion flask and incubated at 37 C overnight. Flakes thereafter were sampled at regular intervals (Figure 44), subjected to trypsinization and the harvested cells counted. When Tetrac or nanoparticulate Tetrac were initially added to the system, flasks contained 20-50 x 10^6 cells. Cell cultures were re-fed with 1% FBS-containing medium. Studies were carried out in duplicate flasks and replicated once. Cell culture for harvesting of RNA. MDA-MB-231 cells were maintained in DMEM that was supplemented with 10% FBS in a 5% CO2/95% 02 air incubator at 37°C. For two days prior to exposure to Tetrac and nanoparticulate Tetrac, cells were maintained in 0.25% FBS that was stripped of estrogen and thyroid hormone. (See Lin et al., Biochemistry 42: 7571-7579 (2003)). RNA microarray and analysis. Microarray analysis experiments were conducted as described previously. (See Glinsky et al., J Clin Invest 115: 1503-1521 (2005); Glinsky et al., J Clin Invest 113: 913-923 (2004); Glinsky et al., Clin Cancer Res 10: 2272-2283 (2004); and Glinsky et al., Mol Carcinog 37: 209-221 (2003)). In brief, the array hybridization and processing, retrieval of data and analysis utilized standard sets of Affymetrix (Santa Clara, CA) equipment, software and protocols in the microarray core facility of Ordway Research Institute. […] Sample purity and integrity were verified with an Agilent BioAnalyzer (Santa Clara, CA). Expression analysis of 54,675 transcripts for each sample was by Affymetrix HG-U133A Plus 2.0 arrays. MAS5.0 software was used for data retrieval and analysis and concordant changes of gene expression in response to unmodified Tetrac and nanoparticulate Tetrac were defined by two-tailed t test at a threshold p value < 0.01.\nExpression of ~54,000 transcripts was analyzed in control and drug-treated cultures, using Affymetrix Human Genome U133 plus 2.0 microarrays. Subsequent analysis was focused on genes affected by treatment at p < 0.01. There was 93% concordance between Tetrac and Tetrac NP in terms of genes affected; notable disparities included downregulation of epidermal growth factor receptor (EGFR) by Tetrac NP and no affect of unmodified Tetrac on this gene."}, "[1]": {"system": "GL261 murine brain tumor cells", "experiment": "Clonogenic survival after single doses of 250 kVp x-rays", "assay_type": "cell-based", "settings": "for α (Gy^-1) / β (Gy^-2): LQ; for SF2: survival at 2 Gy", "protocol": "To irradiate 25 cm^2 flasks, an x-ray machine was used and (Philips 250 kVp Therapeutic X-ray Machine, Einhoven, Germany) operated at 250 kVp and 15 mA with added filtration of 0.4 mm Thoreaus filter. The target to source distance was approximately 30 cm. Dose rates were measured using an R-meter (Victoreen R-meter, Cleveland, OH), and converted to absorbed (Gy) doses using appropriate temperature, pressure, and R to Gy conversion factors. The dose rate was 1 Gy per min. Flasks were irradiated at ambient temperature.\nExperimental cells and FCs were added to treatment flasks before irradiation, and were then allowed to attach to the surfaces of the flask and incubated at 37°C for 1 hour. After incubation the flasks were irradiated using the 250 kVp x-ray source.\nFor […] analyses, survival data lying at or below 36.8% survival were analyzed by using the log fractional survival (log FxS) versus dose (D). Data were fit using linear regression analysis (SigmaPlot, V. 10, Systat Corp., Point Richmond, CA) to obtain the Y-intercept (or n, the extrapolation number) and the slope (1/D0), and their 95% confidence limits. (See Goldstein, A. In: Biostatistics, New York, The MacMillan Co., 1964, p. 140-146).. The Do value (Gy) is defined as the inverse of the slope, and the corrected Dq value (Gy) was then defined using the relationship: Dq(Gy) = ln n x D0 (Gy) [formula] The 95% confidence limits on Dq were defined using error propagation. (See Chase, et al., In: Principles of Radioisotope Methodology. Minneapolis, MN. Burgess Publ. Co., 1962, p. 68, 87-90).\nFor LQ analyses, data lying between a fractional survival of 1.00 and 0.05 were used. The fractional survival data at each dose were transformed using the relationship (-In FxS/D) and plotted against dose (D). A regression analysis was performed to yield the LQ equation along with their 95% confidence limit values using a t-table with the appropriate (N-1) degrees of freedom. (See Goldstein, A. In: Biostatistics, New York, The MacMillan Co., 1964, p. 140-146).\nTo determine the Tetrac modification factor (TMF), the survival at 2 Gy obtained for control cells was divided by the survival at 2 Gy for Tetrac treated cells. The 95% confidence limits on the ratio were determined using error propagation techniques. (See Chase, et al. In: Princiiples of Radioisotope Methodology, Minneapolis, MN, Burgress Publ. Co., 1962, p. 68, 87-90)."}, "[2]": {"settings": "gene expression, listed as unmodified Tetrac"}, "[3]": {"settings": "Exponential Phase (with Tetrac)"}, "[4]": {"settings": "Unfed plateau Phase (with Tetrac)"}, "[5]": {"settings": "SHMT, Unfed plateau Phase (with Tetrac)"}}, "note": "Where “and” joins values, the source holds several entries; their conditions need not be identical. Identical values can stand only once."}
{"compound": "O=C(O)Cc1cc(I)c(Oc2cc(I)c(O)c(I)c2)c(I)c1", "note": "[Tetrac, 3,3',5,5'-tetraiodothyroacetic acid]", "values": [{"measurement": "expression of epidermal growth factor receptor (EGFR)", "setting": "MDA-MB-231 cells; 10^-7 M, 24 h", "value": "no affect"}, {"measurement": "Change: CBY1", "setting": "MDA-MB-231 cells; gene expression", "value": "significantly increased"}, {"measurement": "Change: CDKN2C (Cyclin-dependent kinase inhibitor)", "setting": "MDA-MB-231 cells; gene expression", "value": "↑"}, {"measurement": "Change: Cyclins (Cell cycle regulators)", "setting": "MDA-MB-231 cells; gene expression", "value": "↓"}, {"measurement": "Change: THBS1", "setting": "MDA-MB-231 cells; gene expression", "value": "strongly induced"}, {"measurement": "Change: BCL2L14", "setting": "MDA-MB-231 cells; [2]", "value": "not a significant stimulatory action"}, {"measurement": "Change: CASP2", "setting": "MDA-MB-231 cells; [2]", "value": "not a significant stimulatory action"}, {"measurement": "Change: MCL1", "setting": "MDA-MB-231 cells; [2]", "value": "did not significantly affect"}, {"measurement": "Change: XIAP", "setting": "MDA-MB-231 cells; [2]", "value": "also acted on XIAP"}, {"measurement": "α (Gy^-1)", "setting": "[1]; [3]", "value": 0.930, "unit": "Gy^-1"}, {"measurement": "β (Gy^-2)", "setting": "[1]; [3]", "value": 0.003, "unit": "Gy^-2"}, {"measurement": "α (Gy^-1)", "setting": "[1]; [4]", "value": 1.157, "unit": "Gy^-1"}, {"measurement": "β (Gy^-2)", "setting": "[1]; [4]", "value": 0.066, "unit": "Gy^-2"}, {"measurement": "D0 (Gy)", "setting": "[1]; SHMT, Exponential phase (with Tetrac)", "value": "1.08 Gy and 1.08 (0.09). Gy"}, {"measurement": "D0 (Gy)", "setting": "[1]; [5]", "value": 0.75, "unit": "Gy"}, {"measurement": "Dq (Gy)", "setting": "[1]; [5]", "value": 0.00, "unit": "Gy"}, {"measurement": "sensitization of oxic and hypoxic cells", "setting": "[1]; Tetrac 2µM, graded doses of 250 kVp x-rays (Figure 60)", "value": "sensitize both oxic and hypoxic cells equally"}, {"measurement": "survival at 2 Gy", "setting": "[1]; Tetrac treated cells (non-Tetrac treated 32%)", "value": 13, "unit": "%"}, {"measurement": "increase of the Do value", "setting": "[1]; exponentially growing cells", "value": 15, "unit": "%"}, {"measurement": "reduction of the Dq value", "setting": "[1]; exponentially growing cells", "value": 100, "unit": "%"}, {"measurement": "reduction of the extrapolation number", "setting": "[1]; exponentially growing cells", "value": 93, "unit": "%"}, {"measurement": "reduction of n", "setting": "[1]; plateau phase cells", "value": 93, "unit": "%"}, {"measurement": "reduction of the Do", "setting": "[1]; plateau phase cells", "value": 6, "unit": "%"}, {"measurement": "reduction of the Dq", "setting": "[1]; plateau phase cells", "value": 100, "unit": "%"}, {"measurement": "SF2", "setting": "[1]; [3]", "value": 14.2, "unit": "%"}, {"measurement": "SF2", "setting": "[1]; [4]", "value": "7.62 (6.82 - 8.51) %"}]}
